Source: paper PMC6852045 (International Journal of Cosmetic Science, 2019)

Biological target: T1, peroxisome proliferator-activated receptor-α (PPARα) (Homo sapiens, UniProt Q07869)
T1 sequence (Q07869 196-468 limits assumed): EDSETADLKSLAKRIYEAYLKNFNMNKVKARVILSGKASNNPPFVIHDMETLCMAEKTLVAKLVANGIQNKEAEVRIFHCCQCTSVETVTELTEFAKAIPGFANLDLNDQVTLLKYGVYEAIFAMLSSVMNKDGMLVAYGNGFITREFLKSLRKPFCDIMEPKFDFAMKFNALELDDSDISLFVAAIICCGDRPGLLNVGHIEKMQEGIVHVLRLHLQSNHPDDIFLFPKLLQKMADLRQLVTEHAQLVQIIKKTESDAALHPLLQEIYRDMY
Assay: GAL4-PPARα LBD one-hybrid luciferase transactivation assay in HEK293 cells
Type: cell-based

CCCCCCCC[C@@H](O)CCCCCCCCC(=O)O [HSA, (R)‐10‐hydroxyoctadecanoic acid]
EC50: 5.43 µM
